# Measurements from PMC7031696 (Cell chemical biology, 2019).
# Test system: 3D7-MR4 trophozoite parasite-infected RBCs
# Test: Metabolomic profiling (hydrophilic metabolite changes, UHPLC-MS)
# Type: cell-based, Plasmodium falciparum
smiles,measurement,setting,value
CC(C)(C)c1ccc2c(c1)CN(Cc1ccc(Cl)cc1)CO2 [MMV000442],Log2(fold changes) adenosine,"metabolite adenosine, log2 fold change",0.0000
same,Log2(fold changes) alanine/sarcosine,"metabolite alanine/sarcosine, log2 fold change",-0.9186
same,Log2(fold changes) anthranilate,"metabolite anthranilate, log2 fold change",0.3315
same,Log2(fold changes) arginine,"metabolite arginine, log2 fold change",-1.6314
same,Log2(fold changes) asparagine,"metabolite asparagine, log2 fold change",-0.3296
same,Log2(fold changes) aspartate,"metabolite aspartate, log2 fold change",-0.6205
same,Log2(fold changes) biotin,"metabolite biotin, log2 fold change",-0.8987
same,Log2(fold changes) cCMP,"metabolite cCMP, log2 fold change",0.0000
same,Log2(fold changes) cGMP,"metabolite cGMP, log2 fold change",0.0000
same,Log2(fold changes) carnitine,"metabolite carnitine, log2 fold change",0.0000
same,Log2(fold changes) citrate/isocitrate,"metabolite citrate/isocitrate, log2 fold change",0.0000
same,Log2(fold change) of coenzyme A,metabolite coenzyme A,0.0000
same,Log2(fold change) of cyclic-AMP,metabolite cyclic-AMP,-0.6289
same,Log2(fold change) of cytidine,metabolite cytidine,0.6525
same,Log2(fold change) of dAMP,metabolite dAMP,0.2859
same,Log2(fold change) of dATP,metabolite dATP,0.0000
same,Log2(fold change) of dCDP,metabolite dCDP,-0.4379
same,Log2(fold change) of dCMP,metabolite dCMP,0.0000
same,Log2(fold change) of dCTP,metabolite dCTP,0.0000
same,Log2(fold change) of dGDP/ADP,metabolite dGDP/ADP,-0.0785
same,Log2(fold change) of dGMP/AMP,metabolite dGMP/AMP,0.0000
same,Log2(fold change) of dGTP/ATP,metabolite dGTP/ATP,0.0000
same,Log2(fold change) of dTDP,metabolite dTDP,-0.1987
same,Log2(fold change) of dTMP,metabolite dTMP,0.0000
same,Log2(fold change) of dTTP,metabolite dTTP,-0.2587
same,Log2(fold change) of dUMP,metabolite dUMP,0.0000
same,Log2(fold change) of dUTP,metabolite dUTP,-0.3266
same,Log2(fold change) of deoxyguanosine,metabolite deoxyguanosine,0.0000
same,Log2(fold change) of deoxyinosine,metabolite deoxyinosine,0.0000
same,Log2(fold change) of deoxyribose-phosphate,metabolite deoxyribose-phosphate,0.7610
same,Log2(fold change) of deoxyuridine,metabolite deoxyuridine,0.1388
same,Log2(fold change) of dihydroorotate,metabolite dihydroorotate,-0.6717
same,Log2(fold change) of folate,metabolite folate,-0.1041
same,Log2(fold change) of fructose-1-6-bisphosphate,metabolite fructose-1-6-bisphosphate,-0.1009
same,Log2(fold change) of fructose-6-phosphate,metabolite fructose-6-phosphate,-0.3802
same,Log2(fold change) of fumarate,metabolite fumarate,-0.7813
same,Log2(fold change) of glucono-lactone,metabolite glucono-lactone,0.0000
same,Log2(fold change) of glucose-1/6-phosphate,metabolite glucose-1/6-phosphate,0.0000
same,Log2(fold change) of glutamate,metabolite glutamate,-0.2803
same,Log2(fold change) of glutamine,metabolite glutamine,-0.0929
same,Log2(fold change) of glutathione,metabolite glutathione,-0.1808
same,Log2(fold change) glutathione disulfide,metabolite glutathione disulfide,-0.3868
same,Log2(fold change) glycerate,metabolite glycerate,-0.4490
same,Log2(fold change) guanine,metabolite guanine,-0.8448
same,Log2(fold change) guanosine,metabolite guanosine,-1.2469
same,Log2(fold change) histidine,metabolite histidine,-1.0996
same,Log2(fold change) homocysteic acid,metabolite homocysteic acid,-0.4943
same,Log2(fold change) hydroxyphenylpyruvate,metabolite hydroxyphenylpyruvate,0.0000
same,Log2(fold change) hydroxyproline/Aminolevulinate,metabolite hydroxyproline/Aminolevulinate,-0.0777
same,Log2(fold change) hypoxanthine,metabolite hypoxanthine,-0.1293
same,Log2(fold change) indole,metabolite indole,0.0000
same,Log2(fold change) inosine,metabolite inosine,-0.6031
same,Log2(fold change) isoleucine,metabolite isoleucine,-0.8559
same,Log2(fold change) lactate,metabolite lactate,-0.6662
same,Log2(fold change) leucine,metabolite leucine,0.0000
same,Log2(fold change) lysine,metabolite lysine,-2.7291
same,Log2(fold change) malate,metabolite malate,-1.5961
same,Log2(fold change) maleic acid,metabolite maleic acid,0.0000
same,Log2(fold change) methionine,metabolite methionine,-0.3354
same,Log2(fold change) myo-inositol,metabolite myo-inositol,0.0000
same,Log2(fold change) nicotinamide mononucleotide,metabolite nicotinamide mononucleotide,-1.1163
same,Log2(fold change) nicotinate,metabolite nicotinate,-0.1414
same,Log2(fold change) ornithine,metabolite ornithine,-0.3825
same,Log2(fold change) orotate,metabolite orotate,0.0000
same,Log2(fold change) orotidine-5'-phosphate,metabolite orotidine-5'-phosphate,-4.2271
same,Log2(fold change) oxaloacetate,metabolite oxaloacetate,0.0000
same,Log2(fold change) p-aminobenzoate,metabolite p-aminobenzoate,0.0000
same,Log2(fold change) p-hydroxybenzoate,metabolite p-hydroxybenzoate,0.0000
same,Log2(fold change) pantothenate,metabolite pantothenate,-0.5576
same,Log2(fold change) phenylalanine,metabolite phenylalanine,-0.7473
same,Log2(fold change) phenylpyruvate,metabolite phenylpyruvate,0.0000
same,Log2(fold change) phosphoenolpyruvate,metabolite phosphoenolpyruvate,0.5342
same,Log2(fold change) prephenate,metabolite prephenate,-0.6985
same,Log2(fold change) proline,metabolite proline,-0.4674
same,Log2(fold change) pyridoxine,metabolite pyridoxine,-0.4977
same,Log2(fold change) pyruvate,metabolite pyruvate,-0.6971
same,Log2(fold change) riboflavin,metabolite riboflavin,0.0000
same,Log2(fold change) ribose,metabolite ribose,-0.3439
same,Log2(fold change) ribose-phosphate,metabolite ribose-phosphate,-0.4255
same,Log2(fold change) ribulose-5-phosphate,metabolite ribulose-5-phosphate,0.0000
same,Log2(fold change) serine,metabolite serine,-0.2977
same,Log2(fold change) sn-glycerol-3-phosphate,metabolite sn-glycerol-3-phosphate,0.0000
same,Log2(fold change) succinate/Methylmalonic acid,metabolite succinate/Methylmalonic acid,0.2362
same,Log2(fold change) succinyl-CoA/methylmalonyl-CoA,metabolite succinyl-CoA/methylmalonyl-CoA,0.0000
same,Log2(fold change) taurine,metabolite taurine,0.0000
same,Log2(fold change) thiamine,metabolite thiamine,-0.4264
same,Log2(fold change) threonine/homoserine,metabolite threonine/homoserine,-0.5095
same,Log2(fold change) thymidine,metabolite thymidine,0.0000
same,Log2(fold changes) thymine,"metabolite thymine, log2 fold change",0.0000
same,Log2(fold changes) trehalose-6-Phosphate,"metabolite trehalose-6-Phosphate, log2 fold change",0.0000
same,Log2(fold changes) tryptophan,"metabolite tryptophan, log2 fold change",-0.3248
same,Log2(fold changes) tyrosine,"metabolite tyrosine, log2 fold change",-0.3731
same,Log2(fold changes) uridine,"metabolite uridine, log2 fold change",-0.7263
same,Log2(fold changes) valine,"metabolite valine, log2 fold change",0.0000
same,Log2(fold changes) xanthine,"metabolite xanthine, log2 fold change",0.0000
same,Log2(fold changes) xanthosine-5-phosphate,"metabolite xanthosine-5-phosphate, log2 fold change",0.0000
same,Log2(fold changes) xanthosine,"metabolite xanthosine, log2 fold change",-0.5168
same,Log2(fold changes) xylose,"metabolite xylose, log2 fold change",0.0000
